Read-outs that look alike come from different tables or passages of the source.
Assays:
COX-1 = molecular target: T1, COX-1 (Homo sapiens, UniProt P23219); test: In vitro COX-1 enzyme inhibitory assay (Cayman kit); type: biochemical; conditions: mean ± SD, n = 3
T1 construct: purchased Cayman No.548
Description: (§1) The ability to inhibit COX-1 and COX-2 enzymes was evaluated as previously reported[35],[36], using COX-1 Cayman human enzyme inhibitory assay kit (No.548, USA), COX-2 Cayman human enzyme inhibitory assay kit (No.547, USA) and Tecan Spark reader. […] The % Relative Inhibition was calculated as follows: [drawing 1]

COX-2 = molecular target: T2, COX-2 (Homo sapiens, UniProt P35354); test: In vitro COX-2 enzyme inhibitory assay (Cayman kit); type: biochemical; conditions: for IC50: mean ± SD, n = 3
T2 construct: purchased Cayman No.547
T2 sequence (P35354 18-604): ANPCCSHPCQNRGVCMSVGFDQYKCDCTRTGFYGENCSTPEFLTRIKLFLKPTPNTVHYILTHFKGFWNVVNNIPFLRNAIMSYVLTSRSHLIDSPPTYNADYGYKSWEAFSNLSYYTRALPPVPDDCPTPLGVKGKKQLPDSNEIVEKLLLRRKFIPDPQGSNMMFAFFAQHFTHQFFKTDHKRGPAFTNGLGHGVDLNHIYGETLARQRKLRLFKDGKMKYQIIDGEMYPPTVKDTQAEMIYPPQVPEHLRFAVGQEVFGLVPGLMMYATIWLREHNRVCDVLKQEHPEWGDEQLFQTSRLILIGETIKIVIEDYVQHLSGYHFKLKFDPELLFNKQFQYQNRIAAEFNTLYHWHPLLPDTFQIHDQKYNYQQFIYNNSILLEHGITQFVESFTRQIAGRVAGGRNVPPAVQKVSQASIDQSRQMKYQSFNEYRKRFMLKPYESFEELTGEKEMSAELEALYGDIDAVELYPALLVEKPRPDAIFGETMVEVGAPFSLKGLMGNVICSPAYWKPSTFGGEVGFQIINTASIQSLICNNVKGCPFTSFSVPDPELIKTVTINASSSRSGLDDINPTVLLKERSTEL
Description: as §1

AChE = AChE (Homo sapiens, UniProt P22303); test: biochemical; conditions: for Inhibitory activity against AChE: concentrations up to 100 µM
Sequence of AChE (P22303 32-614): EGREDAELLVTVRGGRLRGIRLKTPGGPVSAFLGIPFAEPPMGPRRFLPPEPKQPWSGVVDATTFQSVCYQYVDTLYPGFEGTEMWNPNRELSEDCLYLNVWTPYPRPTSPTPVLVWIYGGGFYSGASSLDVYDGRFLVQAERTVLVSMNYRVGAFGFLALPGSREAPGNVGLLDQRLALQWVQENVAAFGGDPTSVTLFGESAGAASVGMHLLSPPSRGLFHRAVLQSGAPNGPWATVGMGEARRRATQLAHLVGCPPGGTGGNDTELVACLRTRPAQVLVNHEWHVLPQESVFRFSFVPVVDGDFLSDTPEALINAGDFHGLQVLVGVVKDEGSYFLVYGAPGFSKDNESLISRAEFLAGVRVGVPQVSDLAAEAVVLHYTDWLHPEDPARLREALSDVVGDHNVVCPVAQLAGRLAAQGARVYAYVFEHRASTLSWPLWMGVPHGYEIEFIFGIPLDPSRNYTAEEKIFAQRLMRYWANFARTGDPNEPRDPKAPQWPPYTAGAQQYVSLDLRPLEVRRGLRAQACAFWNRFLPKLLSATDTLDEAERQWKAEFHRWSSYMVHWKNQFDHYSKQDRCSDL

SH-SY5Y cells [1] = test: Protection against H2O2 induced-neurotoxicity; type: cell-based, human; conditions: 150 μM H2O2; for Neuroprotective activity against H2O2: 6.25, 12.5, 25 μM
Description: H2O2 concentration that caused 50% reduction in cell viability was evaluated as previously reported. Then the cultured cells (2 × 10^4 cells/well) were incubated with test samples (at non-cytotoxic concentrations: 6.25, 12.5, 25 μM) or catechin as a positive control (at non-cytotoxic concentrations: 6.25, 12.5, 25, 50, 100 μM). Lastly, the WST-1 reagent was used to evaluate the cell viability as reported.

SH-SY5Y cells [2] = test: Determination of non-cytotoxic concentrations (WST-1 cell viability); type: cell-based; conditions: for Non-cytotoxic concentration on SH-SY5Y cells: human; for Concentration showing cytotoxic effect on SH-SY5Y cells: tested 6.25-200 μM
Description: In this assay, the non-toxic concentrations of the tested samples to SH-SY5Y cells, along with catechin[58] and epicatechin-3-gallate[59] as a positive controls were used for the evaluation of the neuroprotective activity. […]. Cell viability was then assessed using a previously described method.

SH-SY5Y cells [3] = test: Protection against Aβ1-42 induced-neurotoxicity; type: cell-based, human; conditions: only at 50 and 100 μM; Aβ1-42 25 μM
Description: Finally, evaluation of cell viability was conducted.

[4] = mean ± SD, n = 3, read-out: AChE inhibition IC50

T1 sequence (P23219 24-599): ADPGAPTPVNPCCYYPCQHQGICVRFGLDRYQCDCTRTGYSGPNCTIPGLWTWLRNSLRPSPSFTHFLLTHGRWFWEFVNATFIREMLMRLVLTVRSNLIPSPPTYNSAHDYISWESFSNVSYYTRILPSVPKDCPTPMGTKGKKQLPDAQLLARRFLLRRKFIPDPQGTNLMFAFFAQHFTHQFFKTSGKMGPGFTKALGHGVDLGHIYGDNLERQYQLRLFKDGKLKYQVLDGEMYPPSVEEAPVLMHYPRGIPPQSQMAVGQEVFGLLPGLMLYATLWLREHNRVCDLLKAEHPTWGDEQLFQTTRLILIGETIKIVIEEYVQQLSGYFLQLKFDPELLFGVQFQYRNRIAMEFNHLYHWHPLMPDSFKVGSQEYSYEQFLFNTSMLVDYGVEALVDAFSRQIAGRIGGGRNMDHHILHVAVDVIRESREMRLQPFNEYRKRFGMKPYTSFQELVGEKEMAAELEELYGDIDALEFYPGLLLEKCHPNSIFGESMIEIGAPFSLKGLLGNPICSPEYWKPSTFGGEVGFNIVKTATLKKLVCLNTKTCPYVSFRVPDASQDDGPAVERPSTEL

Molecule | IC50 (COX-1) | COX-2 selective index S.I = IC50 COX-1/IC50 COX-2 (COX-2) | IC50 (COX-2) | IC50 (AChE; [4]) | Neuroprotective activity against H2O2 (SH-SY5Y cells [1]) | inhibition at 100 µM (AChE; at 100 µM) | Inhibitory activity against AChE (AChE) | IC50 (AChE) | Non-cytotoxic concentration on SH-SY5Y cells (SH-SY5Y cells [2]) | Concentration showing cytotoxic effect on SH-SY5Y cells (SH-SY5Y cells [2]) | Neuroprotective effect against H2O2 (SH-SY5Y cells [1]; only at 50 and 100 μM) | Neuroprotection against Aβ1-42 (SH-SY5Y cells [3])
CC1=CCC(C(C)(O)CCC(O)C(C)(C)O)CC1 (stereo not drawn) [Metabolite 2, 10β,11-dihydroxy-α-bisabolol] | 71 ± 4.4 µM | 4.093 | 17.3 ± 0.66 µM | 12.9 µM | – | – | – | – | – | – | – | –
CC(C)=CCC[C@](C)(O)[C@@H]1CC=C(C(=O)O)CC1 [Metabolite 3, Hamanasic acid A] | 28.1 ± 1.74 µM | 4.362 | 6.45 ± 0.24 µM | > 100 µM | didn’t show any neuroprotective activity | 20% | – | – | – | – | – | –
CC(C)=CCCC(C)(O)C1CCC(C)CC1 (stereo not drawn) [Metabolite 4, 2,3-dihydro-α-bisabolol] | 35.3 ± 2.18 µM | 8.598 | 4.11 ± 0.15 µM | > 100 µM | – | – | no inhibitory activity | – | – | – | – | –
COC(=O)C1=CCC(C(C)CCC2OC2(C)C)CC1 (stereo not drawn) [Metabolite 5, 7-dehydroxy-10,11-epoxy-3-methylcarboxy-α-bisabolol] | 16.8 ± 1.04 µM | 6.711 | 2.51 ± 0.09 µM | – | didn’t show any neuroprotective activity | – | no inhibitory activity | > 100 µM | – | – | – | –
CC(C)(O)C(O)CCC(C)(O)C1CC=C(CO)CC1 (stereo not drawn) [Metabolite 6, 10β,11,15-trihydroxy-α-bisabolol] | 67.8 ± 2.28 µM | 12.58 | 5.39 ± 0.18 µM | > 100 µM | – | – | no inhibitory activity | – | ≤ 12.5 µM | – | – | –
O.Oc1cc(O)c2c(c1)O[C@H](c1ccc(O)c(O)c1)[C@@H](O)C2 [catechin, reference compound] | – | – | – | – | – | – | – | – | – | 200 µM | exhibited neuroprotective effects | –
CC(C)=CCCC(C)(O)C1CC=C(C)CC1 (stereo not drawn) [α-Bisabolol, (-)-α-bisabolol, reference compound] | 20.1 ± 1.19 µM | 6.889 | 2.92 ± 0.13 µM | – | – | – | no inhibitory activity | > 100 µM | ≤ 25 µM | – | – | –
epicatechin-3-gallate | – | – | – | – | – | – | – | – | – | 200 µM | – | exhibited neuroprotection

Source: article PMC12297533 (Scientific Reports, 2025)
